These are literature values, as cited in US8278291B1, “Treatment of wrinkles and strias with 4-hydroxyandrostenedione or a derivative thereof” (Curadis GmbH, priority 1999, dated 2012).

For one data set, the target named is T1, aromatase (Homo sapiens, UniProt P11511).
T1 sequence (P11511 1-503): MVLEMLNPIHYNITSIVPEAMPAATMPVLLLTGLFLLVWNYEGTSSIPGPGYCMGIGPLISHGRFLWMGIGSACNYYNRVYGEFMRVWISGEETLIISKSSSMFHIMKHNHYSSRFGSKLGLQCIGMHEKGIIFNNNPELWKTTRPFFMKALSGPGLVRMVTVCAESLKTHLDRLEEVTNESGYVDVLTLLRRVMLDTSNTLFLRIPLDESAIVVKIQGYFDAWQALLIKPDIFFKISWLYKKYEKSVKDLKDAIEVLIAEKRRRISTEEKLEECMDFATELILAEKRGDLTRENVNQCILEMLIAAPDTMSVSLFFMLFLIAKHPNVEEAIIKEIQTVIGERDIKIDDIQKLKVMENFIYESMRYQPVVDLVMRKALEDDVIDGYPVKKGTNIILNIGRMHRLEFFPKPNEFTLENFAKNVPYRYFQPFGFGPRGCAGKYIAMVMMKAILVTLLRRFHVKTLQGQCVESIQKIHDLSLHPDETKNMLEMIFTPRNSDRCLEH
Conditions: described in the literature.

Another data set relates to 5-alpha-reductase. Conditions: described in the literature, higher concentrations.
The conditions of data set [1]: applied to the head of monkeys over 27 weeks, versus untreated individuals, Rittmaster 1987.
The subject of the next data set is sebaceous gland. As to conditions: topical, male fuzzy rat, Ye 1997.

Consider `C[C@]12CCC(=O)C(O)=C1CC[C@@H]1[C@@H]2CC[C@]2(C)C(=O)CC[C@@H]12` [4-hydroxyandrostendione, 4-hydroxyandrost-4-ene-3,17-dione], for which the “critical concentration for aromatase” value on aromatase is reported as “about 3 nano mole/L”. Besides, in the data set with 5-alpha-reductase, the “concentration that can also inhibit 5-alpha-reductase” value was 3 micro mole/L.

Turning to `CCN(CC)C(=O)[C@H]1CC[C@H]2[C@@H]3CC[C@H]4N(C)C(=O)CC[C@]4(C)[C@H]3CC[C@]12C` [Example 4-MA, 17-beta-N,N-diethylcarbamoyl-4-methyl-4-aza-5-alpha-androstan-3-one], the signs of boldness entry in data set [1] is “did not have any signs of a boldness”.

As to `CC(C)(C)NC(=O)[C@H]1CC[C@H]2[C@@H]3CC[C@H]4NC(=O)C=C[C@]4(C)[C@H]3CC[C@]12C` [Finasterid, N-tert-butyl-3-oxo-4-aza-5α-androst-1-ene-17-β-carboxamide], in the data set on sebaceous gland, the “effect in the sebaceous gland model compared with MK 386” value is “little more effective than MK 386” and the “effect in the sebaceous gland model compared with RU58841” value is “much lower effects”.

Turning to `CC(C)CCC[C@@H](C)[C@H]1CC[C@H]2[C@@H]3[C@@H](C)C[C@H]4N(C)C(=O)CC[C@]4(C)[C@H]3CC[C@]12C` [MK 386, 4,7-beta-dimethyl-4-azacholestane-3-one], the “effect in the sebaceous gland model compared with RU58841” value in the data set with sebaceous gland is listed as “much lower effects”.
